Experimental findings from US12527774B2, “Estrogen-related receptor alpha modulators” (LEAD PHARMA HOLDING B.V., priority 2019, dated 2026) are described below.

Sequence of ERRα ligand binding domain (ERRα-LBD) (P11474 193-421): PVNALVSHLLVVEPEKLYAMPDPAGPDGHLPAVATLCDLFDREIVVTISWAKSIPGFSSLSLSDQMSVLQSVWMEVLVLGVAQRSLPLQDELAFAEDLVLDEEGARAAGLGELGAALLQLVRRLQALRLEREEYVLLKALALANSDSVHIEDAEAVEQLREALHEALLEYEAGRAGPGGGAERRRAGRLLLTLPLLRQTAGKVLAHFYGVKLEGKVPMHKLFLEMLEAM

One test deals with ERRα ligand binding domain (ERRα-LBD) (Homo sapiens (Human), UniProt P11474). In words: ERRα AlphaScreen Assay. The settings on record: disruption of binding of ERRα-LBD protein to biotin-PGC1α-3 co-activator peptide. The format is biochemical. The source says:
This assay was based on the knowledge that nuclear receptors interact with cofactors in a ligand dependent matter. The sites of interaction have been mapped to LXXLL motifs that are present in the co-activator sequences. Short peptide sequences that contain the LXXLL motif mimic the behavior of full length co-activators.
The ERRα AlphaScreen Assay described here relies on the interaction of the co-activator peptide with purified bacterial-expressed ERRα ligand binding domain (ERRα-LBD); upon ligand binding the ERRα protein can undergo a conformational change resulting in a loss of co-activator binding.
Compounds of the present invention were tested for their ability to disrupt binding of ERRα-LBD protein to co-activator peptide using AlphaScreen® Technology (Perkin Elmer). ERRα-LBD protein was expressed in E. coli as a 6×His Small Ubiquitin-like Modifier (SUMO) fusion. Bacterial expressed 6His-SUMO-ERRα-LBD protein was purified using affinity chromatography. All experiments were performed at room temperature in 384-well white non-binding plates (Greiner) using 50 mM Tris-HCl pH 7.5, 100 mM NaCl, 0,1% Pluronic F-127, 0.05% BSA and 5 mM TCEP as the buffer. Final DMSO concentration was 1% in the assay. Compounds were assayed in triplicate and: incubated with 0.81 nM ERRα-LBD protein and 10 μg/mL streptavidin donor beads and 10 μg/mL Ni-chelate acceptor beads for 1 hour at room temperature; followed by a 2-hour incubation with 15 nM biotin-PGC1α-3 peptide (QRRPCSELLKYLTTNDDPP) corresponding to amino acids 202 to 220.
The AlphaScreen signal was measured using an Envision Xcite plate reader (Perkin Elmer). Data was normalized, and curve fitting analysis was performed in GraphPad Prism 7 using a four-parameter dose-response fit.
As multiple IC50 values were annotated for the same compound-protein pair, a mean pIC50 for each compound was determined.
(In general: Alpha assays give light when donor and acceptor beads are brought close together.)
On to `COc1cc(C2CC(=O)Nc3n[nH]cc32)ccc1COc1ccc(C(F)F)cc1C(F)F` (single isomer, unassigned; (-)) [Example 218, (−)-4-(4-{[2,4-bis(difluoromethyl)phenoxy]methyl}-3-methoxyphenyl)-2H,4H,5H,6H,7H-pyrazolo[3,4-b]pyridin-6-one], for which the “mean pIC50” value is no less than 8.

The test is the same for the next values; noted with them: disruption of binding of ERRα-LBD protein to biotin-PGC1α-3 co-activator peptide; read-out: mean pIC50 (converted).
For `COc1cc(C2CC(=O)Nc3n[nH]cc32)ccc1COc1ccc(C)cc1C` (stereo not shown) [Example 111, 4-{4-[(2,4-dimethylphenoxy)methyl]-3-methoxyphenyl}-2H,4H,5H,6H,7H-pyrazolo[3,4-b]pyridin-6-one], the IC50 is 10 to 100 nM.
On the same count and under the same terms, then `O=C1CC(c2ccc(OCc3ccccc3Cl)cc2)c2c[nH]nc2N1` (stereo not shown) [Example 60, 4-{4-[(2-chlorophenyl)methoxy]phenyl}-2H,4H,5H,6H,7H-pyrazolo[3,4-b]pyridin-6-one], with 100 to 1000 nM; and `COc1cc(C2CC(=O)Nc3c[nH]cc32)ccc1COc1ccc(C(F)(F)F)cc1C(F)(F)F` (stereo not shown) [Example 190, 4-(4-{[2,4-bis(trifluoromethyl)phenoxy]methyl}-3-methoxyphenyl)-1H,2H,3H,4H, 6H-pyrrolo[3,4-b]pyridin-2-one], with 10 to 100 nM.
The same measure, in the same setting: with `CCOC(=O)c1cc(C2CC(=O)Nc3n[nH]cc32)ccc1OCc1ccccc1C(F)(F)F` (stereo not shown) [Example 128, ethyl 5-{6-oxo-2H,4H,5H,6H,7H-pyrazolo[3,4-b]pyridin-4-yl}-2-{[2-(trifluoromethyl)phenyl]methoxy}benzoate] the figure was 10 to 100 nM; with `Nc1cc(C2CC(=O)Nc3n[nH]cc32)ccc1OCc1ccccc1C(F)(F)F` (stereo not shown) [Example 161, 4-(3-amino-4-{[2-(trifluoromethyl)phenyl]methoxy}phenyl)-2H,4H,5H,6H, 7H-pyrazolo[3,4-b]pyridin-6-one], 100 to 1000 nM.
On the same count and under the same terms, then `COc1cc(C2CC(=O)Nc3n[nH]cc32)ccc1OCc1ccncc1C(F)(F)F` (stereo not shown) [Example 50, 4-(3-methoxy-4-{[3-(trifluoromethyl)pyridin-4-yl]methoxy}phenyl)-2H,4H,5H,6H,7H-pyrazolo[3,4-b]pyridin-6-one], with 100 to 1000 nM; and `COc1cc(C2CC(=O)Nc3n[nH]cc32)ccc1OCc1ccc(C(C)=O)cc1C(F)(F)F` (single isomer, unassigned; (+)) [Example 199, (+)-4-(4-{[4-acetyl-2-(trifluoromethyl)phenyl]methoxy}-3-methoxyphenyl)-2H,4H,5H,6H,7H-pyrazolo[3,4-b]pyridin-6-one], with 100 to 1000 nM.
`O=C1CC(c2ccc(OCc3ccccc3C(F)(F)F)cc2F)c2c[nH]nc2N1` (stereo not shown) [Example 66, 4-(2-fluoro-4-{[2-(trifluoromethyl)phenyl]methoxy}phenyl)-2H,4H,5H,6H, 7H-pyrazolo[3,4-b]pyridin-6-one]: the IC50 is 100 to 1000 nM.
On the same count and under the same terms, with `COc1ccccc1COc1ccc(-c2cc(=O)[nH]c3n[nH]cc23)cc1OC` [Example 171, 4-{3-methoxy-4-[(2-methoxyphenyl)methoxy]phenyl}-2H,6H, 7H-pyrazolo[3,4-b]pyridin-6-one] the figure was 10 to 100 nM.
Still for that read-out and setting: with `COc1cc(C2CC(=O)Nc3n[nH]cc32)ccc1OCc1cc2c(cc1Br)OCO2` (stereo not shown) [Example 43, 4-{4-[(6-bromo-2H-1,3-benzodioxol-5-yl)methoxy]-3-methoxyphenyl}-2H,4H,5H,6H, 7H-pyrazolo[3,4-b]pyridin-6-one] the figure was 10 to 100 nM; with `COC(=O)C1C(=O)Nc2n[nH]cc2C1c1ccc(COc2ccc(C(F)(F)F)cc2C(F)(F)F)c(OC)c1` (stereo not shown) [Example 187, methyl 4-(4-{[2,4-bis(trifluoromethyl)phenoxy]methyl}-3-methoxyphenyl)-6-oxo-2H,4H,5H,6H, 7H-pyrazolo[3,4-b]pyridine-5-carboxylate], 100 to 1000 nM; with `Cc1cc(C2CC(=O)Nc3n[nH]cc32)ccc1OCc1ccccc1C(F)(F)F` (stereo not shown) [Example 73, 4-(3-methyl-4-{[2-(trifluoromethyl)phenyl]methoxy}phenyl)-2H,4H,5H,6H,7H-pyrazolo[3,4-b]pyridin-6-one], 10 to 100 nM.
On the same count and under the same terms, with `COc1cc(C2CC(=O)Nc3c[nH]nc32)ccc1OCc1ccc(N)cc1C(F)(F)F` (stereo not shown) [Example 137, 7-(4-{[4-amino-2-(trifluoromethyl)phenyl]methoxy}-3-methoxyphenyl)-2H,4H,5H,6H, 7H-pyrazolo[4,3-b]pyridin-5-one] the figure was 100 to 1000 nM; with `COc1cc(C2CC(=O)Nc3n[nH]cc32)c(F)cc1OCc1ccccc1C(F)(F)F` (stereo not shown) [Example 75, 4-(2-fluoro-5-methoxy-4-{[2-(trifluoromethyl)phenyl]methoxy}phenyl)-2H,4H,5H, 6H, 7H-pyrazolo[3,4-b]pyridin-6-one], 10 to 100 nM; with `COc1cc(C2CC(=O)Nc3n[nH]cc32)ccc1COc1ccc(Cl)cc1C(F)(F)F` (single isomer, unassigned; (+)) [Example 193, (+)-4-(4-{[4-chloro-2-(trifluoromethyl)phenoxy]methyl}-3-methoxyphenyl)-2H,4H,5H,6H,7H-pyrazolo[3,4-b]pyridin-6-one], 10 to 100 nM.
Turning to `COc1cc(C2CC(=O)Nc3ccsc32)ccc1OCc1ccccc1Cl` (stereo not shown) [Example 79, 7-{4-[(2-chlorophenyl)methoxy]-3-methoxyphenyl}-4H,5H,6H, 7H-thieno[3,2-b]pyridin-5-one], the IC50 was 100 to 1000 nM.
On to `O=C1CC(c2ccc(COc3ccc(F)cc3C(F)(F)F)c(OC(F)(F)F)c2)c2c[nH]nc2N1` (stereo not shown) [Example 110, 4-(4-{[4-fluoro-2-(trifluoromethyl)phenoxy]methyl}-3-(trifluoromethoxy)phenyl)-2H,4H,5H,6H, 7H-pyrazolo[3,4-b]pyridin-6-one], for which the IC50 was 100 to 1000 nM.
On the same count and under the same terms, with `COc1ccc(COc2ccc(C3CC(=O)Nc4c[nH]nc43)cc2OC)c(C(F)(F)F)c1` (stereo not shown) [Example 92, 7-(3-methoxy-4-{[4-methoxy-2-(trifluoromethyl)phenyl]methoxy}phenyl)-2H,4H,5H,6H,7H-pyrazolo[4,3-b]pyridin-5-one] the figure was 10 to 100 nM; with `COc1cc(-c2cc(=O)[nH]c3n[nH]cc23)ccc1OCc1ccccc1` [Example 183, 4-[4-(benzyloxy)-3-methoxyphenyl]-2H,6H, 7H-pyrazolo[3,4-b]pyridin-6-one], 100 to 1000 nM.
For `O=C1CC(c2ccc(OCc3ccccc3C(F)(F)F)cn2)c2c[nH]nc2N1` (stereo not shown) [Example 63, 4-(5-{[2-(trifluoromethyl)phenyl]methoxy}pyridin-2-yl)-2H,4H,5H,6H, 7H-pyrazolo[3,4-b]pyridin-6-one], the IC50 was 100 to 1000 nM.
`COc1cc(C2CC(=O)Nc3n[nH]cc32)c(F)cc1OCc1cccc(F)c1C(F)(F)F` (stereo not shown) [Example 77, 4-(2-fluoro-4-{[3-fluoro-2-(trifluoromethyl)phenyl]methoxy}-5-methoxyphenyl)-2H,4H,5H,6H,7H-pyrazolo[3,4-b]pyridin-6-one]: the IC50 was 100 to 1000 nM.
On the same count and under the same terms, then `COc1cc(C2CC(=N)Nc3n[nH]cc32)ccc1OCc1ccccc1C(F)(F)F` (stereo not shown) [Example 167, 4-(3-methoxy-4-{[2-(trifluoromethyl)phenyl]methoxy}phenyl)-2H,4H,5H,6H, 7H-pyrazolo[3,4-b]pyridin-6-imine], with 100 to 1000 nM; and `COc1cc(C2CC(=O)Nc3n[nH]cc32)ccc1COc1ccc(C(F)(F)F)cc1C(F)F` (single isomer, unassigned; (+)) [Example 215, (+)-4-(4-{[2-(difluoromethyl)-4-(trifluoromethyl)phenoxy]methyl}-3-methoxyphenyl)-2H,4H,5H,6H,7H-pyrazolo[3,4-b]pyridin-6-one], with 100 to 1000 nM.
The same measure, in the same setting: then `COCCOc1cc(C2CC(=O)Nc3n[nH]cc32)ccc1OCc1ccccc1C(F)(F)F` (stereo not shown) [Example 164, 4-[3-(2-methoxyethoxy)-4-{[2-(trifluoromethyl)phenyl]methoxy}phenyl]-2H,4H,5H,6H, 7H-pyrazolo[3,4-b]pyridin-6-one], with 10 to 100 nM.
Same read-out and setting: then `COc1cc(C2CC(=O)Nc3n[nH]cc32)ccc1OCc1ccc(CC(C)(C)O)cc1C(F)(F)F` (stereo not shown) [Example 153, 4-(4-{[4-(2-hydroxy-2-methylpropyl)-2-(trifluoromethyl)phenyl]methoxy}-3-methoxyphenyl)-2H,4H,5H,6H,7H-pyrazolo[3,4-b]pyridin-6-one], with 10 to 100 nM; and `COc1cc(C2CC(=O)Nc3n[nH]cc32)ccc1OCc1ccc(C(=O)O)cc1C(F)(F)F` (stereo not shown) [Example 120, 4-(2-methoxy-4-{6-oxo-2H,4H,5H,6H, 7H-pyrazolo[3,4-b]pyridin-4-yl}phenoxymethyl)-3-(trifluoromethyl)benzoic acid], with 100 to 1000 nM; and `COc1cc(C2CC(=O)Nc3n[nH]cc32)ccc1OCc1cccc(OCCO)c1C(F)(F)F` (stereo not shown) [Example 160, 4-(4-{[3-(2-hydroxyethoxy)-2-(trifluoromethyl)phenyl]methoxy}-3-methoxyphenyl)-2H,4H,5H,6H,7H-pyrazolo[3,4-b]pyridin-6-one], with 100 to 1000 nM.
